# Test results published in ChEMBL document CHEMBL2007661, “Compounds: GSK PKIS; Assays: UNC Frye lab” (2012).
# Where “and” joins values, the source holds several entries; their conditions need not be identical. Identical values can stand only once.
# Target: T1, Tyrosine-protein kinase Mer (Homo sapiens) (UniProt Q12866)
# T1 sequence (whole entry): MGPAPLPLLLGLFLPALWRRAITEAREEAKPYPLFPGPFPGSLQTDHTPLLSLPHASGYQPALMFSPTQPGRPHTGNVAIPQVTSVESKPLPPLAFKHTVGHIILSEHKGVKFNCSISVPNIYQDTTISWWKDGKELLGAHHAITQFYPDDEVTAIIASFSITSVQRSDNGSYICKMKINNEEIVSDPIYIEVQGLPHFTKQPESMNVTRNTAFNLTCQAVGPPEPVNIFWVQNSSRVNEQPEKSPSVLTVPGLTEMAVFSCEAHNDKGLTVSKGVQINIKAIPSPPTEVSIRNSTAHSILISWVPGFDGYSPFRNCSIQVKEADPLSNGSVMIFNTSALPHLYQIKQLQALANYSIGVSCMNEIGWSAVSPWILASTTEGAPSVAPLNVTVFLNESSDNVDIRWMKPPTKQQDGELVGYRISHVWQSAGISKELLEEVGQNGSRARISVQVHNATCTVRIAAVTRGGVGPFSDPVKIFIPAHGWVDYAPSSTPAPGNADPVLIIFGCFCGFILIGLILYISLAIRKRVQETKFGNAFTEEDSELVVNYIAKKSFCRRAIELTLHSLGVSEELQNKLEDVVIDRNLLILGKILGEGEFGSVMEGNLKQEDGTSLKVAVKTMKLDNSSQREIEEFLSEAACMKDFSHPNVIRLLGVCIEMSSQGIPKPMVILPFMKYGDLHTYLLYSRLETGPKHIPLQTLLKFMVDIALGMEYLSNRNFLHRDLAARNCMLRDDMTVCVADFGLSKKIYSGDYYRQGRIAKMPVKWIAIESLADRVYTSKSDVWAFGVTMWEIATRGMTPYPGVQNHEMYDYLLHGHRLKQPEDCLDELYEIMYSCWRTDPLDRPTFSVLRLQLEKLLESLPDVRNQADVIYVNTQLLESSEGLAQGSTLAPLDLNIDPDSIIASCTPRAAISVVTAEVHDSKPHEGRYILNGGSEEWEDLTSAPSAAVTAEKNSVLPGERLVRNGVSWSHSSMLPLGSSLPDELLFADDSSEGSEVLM
# Conditions: at 10 µM
row,SMILES,inhibition
1,NS(=O)(=O)c1ccc(-c2ccc3c(NC(=O)C4CC4)n[nH]c3c2)cc1,11%
2,CN(C)CCCn1c(-c2nonc2N)nc2cnccc21,23%
3,NC(=O)c1ccc(Oc2nccc(-c3c(-c4ccc(F)cc4)ncn3C3CCNCC3)n2)cc1,3%
4,O=C(Nc1n[nH]c2nc(-c3ccco3)c(Br)cc12)C1CC1,83%
5,CN(C)CCNC(=O)Nc1ccc(N(C)c2ccnc(Nc3ccc(CS(C)(=O)=O)cc3)n2)cc1,1%
6,Cc1nnc(-c2cccc(-c3ccc(C(=O)NCC4CC4)cc3)c2)o1,-4%
7,CS(=O)(=O)Nc1ccc(N/C=C2\C(=O)Nc3ccccc32)cc1,2%
8,NS(=O)(=O)c1ccc(Nc2cc(-c3cccc(O)c3)n[nH]2)cc1,2%
9,Fc1ccc(-c2ncn(C3CCNCC3)c2-c2ccnc(Oc3ccc4c(c3)OCO4)n2)cc1,6%
10,O=C1Nc2ccc(-c3cccnc3)cc2C1=Cc1cc(Br)c(O)c(Br)c1,1%
11,O=C(Nc1n[nH]c2cc(-c3ccc(F)cc3)ccc12)C1CC1,86%
12,Cc1cc(Cl)cc2c1NC(=O)C2=NNc1ccc(S(N)(=O)=O)cc1,63%
13,CCn1c(-c2nonc2N)nc2c(C#CC(C)(C)O)ncc(OC3CCNCC3)c21,-5%
14,CCn1c(-c2nonc2N)nc2cncc(C(=O)N3CC[C@H](N)C3)c21,6%
15,CCN1CCC(CC(=O)Nc2n[nH]c3nnc(-c4cccc(F)c4F)cc23)CC1,9%
16,CN1CCC(n2cnc(-c3ccc(F)cc3)c2-c2ccnc(N)n2)CC1,-7%

row,SMILES,inhibition
1,NS(=O)(=O)c1ccc(N/N=C2\C(=O)Nc3ccc(Cl)cc32)cc1,2%
2,OCCCNc1nccc(-c2c(-c3ccc(F)cc3)nn3cc(C(F)(F)F)ccc23)n1,57%
3,Cc1ccc(-c2cc3c(NC(=O)C4CC4)ncnc3o2)cc1,3%
4,CNC(=O)c1cncc(/C=C/c2ccccc2Cl)c1,5%
5,Cc1ccc(C(=O)NC2CCCCC2)cc1-c1ccc(C(=O)NCC2CC2)cc1,-8%
6,CCn1c(-c2nonc2N)nc2c(C#CC(C)(C)O)ncc(OC[C@@H]3CCCN3)c21,-4%
7,O=C1Nc2ccccc2/C1=C/Nc1ccc2[nH]c(=O)[nH]c2c1,-2%
8,NS(=O)(=O)c1ccc(N/N=C2\C(=O)Nc3ccc4ncccc4c32)cc1,-1%
9,CCn1c(-c2nonc2N)nc2c(C#CC(C)(C)O)ncc(OCC3CCNCC3)c21,3%
10,FC(F)(F)CNc1nccc(-c2cnn3ncccc23)n1,1%
11,CC(C)=Cc1cccc2c1/C(=N/Nc1ccc(S(N)(=O)=O)cc1)C(=O)N2,68%
12,Cc1cc(-c2ccco2)cc(C)c1/C=C/c1cncc(-c2nn[nH]n2)c1,86%
13,CNC(=O)c1cc(-c2ccc(F)cc2)cc(-c2ccc(S(=O)(=O)N3CCCC3)cc2)c1N,-7%
14,CCC(=O)Nc1ccc(C)c(-c2ccc(C(=O)NCC3CC3)cc2)c1,-1%
15,Fc1ccc(-c2ncn(CCCN3CCOCC3)c2-c2ccncc2)cc1,21%
16,CN1CCC(C(=O)Nc2n[nH]c3nc(-c4ccc(O)cc4)c(Br)cc23)CC1,15% and 7%

# Results, then the compound that gave them:
row,inhibition,SMILES
1,0%,COc1ccc(-c2nn3ncccc3c2-c2ccnc(Nc3ccc4c(c3)OCCO4)n2)cc1
2,10%,COc1cc2ncn(-c3cc(OCc4ccccc4C(F)(F)F)c(C(N)=O)s3)c2cc1OC
3,-5%,COc1ccc(-c2cc(-c3c[nH]nc3-c3ccccn3)ccn2)cc1
4,-4%,CN(c1ccc(NC(=O)Nc2c(Cl)cccc2Cl)cc1)c1ccnc(Nc2cccc(CS(C)(=O)=O)c2)n1
5,-6%,Cn1cc(C=C2C(=O)Nc3cccnc32)c2ccccc21
6,13%,Nc1nccc(C#Cc2cncnc2Nc2ccc(OCc3cccc(F)c3)c(Cl)c2)n1
7,100%,COC(=O)Nc1nc2cc(Oc3ccc(NC(=O)Nc4ccccc4)cc3)ccc2[nH]1
8,-2%,Cc1ccc(O)cc1Nc1ccnc2cc(-c3ccccn3)ccc12
9,67%,[O-][S+]1CCN(Cc2ccc(-c3ccc4ncnc(Nc5ccc(OCc6cccc(F)c6)c(Cl)c5)c4c3)o2)CC1
10,-5%,COc1ccc2cc(-c3c(-c4ccncc4)nc(-c4ccc([S+](C)[O-])cc4C)n3C)ccc2c1 (stereo not given)
11,27%,c1ccc(Oc2ccc(Nc3ncc(-c4ccccc4)o3)cc2)cc1
12,67%,COc1cc2c(cc1Nc1nc(Nc3ccsc3C(N)=O)c3cc[nH]c3n1)N(C(=O)CN(C)C)CCC2
13,2%,Nc1ncnc2occ(-c3ccc(NC(=O)Nc4cc(C(F)(F)F)cc(C(F)(F)F)c4)cc3)c12
14,1%,CC(=O)Nc1cccc(C#Cc2cncnc2Nc2ccc(OCc3cccc(F)c3)c(Cl)c2)n1
15,-2%,CCS(=O)(=O)c1ccc(OC)c(Nc2nccc(N(C)c3ccc4c(C)n[nH]c4c3)n2)c1
16,8%,CCc1cccc(NC(=O)Nc2ccc(Oc3ccc4nc(NC(=O)OC)[nH]c4c3)cc2)c1
17,-4%,CN1CCN(Cc2ccc(-c3cc4ncnc(Nc5ccc(OCc6cccc(F)c6)c(Cl)c5)c4s3)o2)CC1
18,31%,Fc1ccc(-c2ncn(C3CCNCC3)c2-c2ccnc(Oc3ccccc3)n2)cc1
19,77%,COc1ccc2cc(-c3c(-c4ccncc4)nc(-c4ccc([S+](C)[O-])cc4)n3C)ccc2c1 (stereo not given)
20,5%,COc1cc2ncnc(Nc3ccc4c(cnn4Cc4ccccc4)c3)c2cc1OC
21,59%,CCn1c(-c2nonc2N)nc2ccccc21
22,10%,CCCN1CCC=C(c2ccc(Nc3nc(Nc4ccccc4C(N)=O)c4cc[nH]c4n3)c(C)c2)C1
23,-4%,O=C(Nc1n[nH]c2cc(-c3ccccc3)ccc12)C1CC1
24,-1%,CN(c1ccc(NC(=O)Nc2ccc(OC(F)(F)F)cc2)cc1)c1ccnc(Nc2cccc(S(N)(=O)=O)c2)n1

row,inhibition,SMILES
1,85%,COc1cccc(-c2c[nH]c3c(N/N=C/c4ccncc4)ncnc23)c1
2,66%,CS(=O)(=O)CCN(CC#N)Cc1ccc(-c2ccc3ncnc(Nc4ccc(OCc5cccc(F)c5)c(Cl)c4)c3c2)o1
3,38%,Cc1cccc(Nc2ncc(-c3ccccc3)o2)c1
4,5%,COc1ccc(COc2ccc(Cc3cnc(N)nc3N)cc2OC)cc1
5,-5%,Fc1ccc(Nc2nccc(-c3c(-c4ccc(C(F)(F)F)cc4)nn4ncccc34)n2)cc1F
6,-10%,CC(C)c1ccc(-c2cc(-c3c[nH]nc3-c3ccccn3)ccn2)cc1
7,0%,COc1ccc(Nc2ncc(-c3ccccc3)o2)cc1OC
8,-2%,Nc1nc(-c2ccc(F)cc2)c(-c2ccc3ncccc3n2)s1
9,8%,CN(C)C(=O)O[C@@H]1CN[C@@H](C#Cc2cc3ncnc(Nc4ccc(OCc5cccc(F)c5)c(Cl)c4)c3s2)C1
10,0%,NCc1ccc(-c2nc(-c3ccc(Cl)c(O)c3)c(-c3ccncc3)[nH]2)cc1
11,47%,CC1=C(C(=O)Nc2ccc3[nH]ncc3c2)C(c2ccc3ccccc3c2)CC(=O)N1 (stereo not given)
12,88%,CS(=O)(=O)CCNCc1ccoc1-c1ccc2ncnc(Nc3ccc(OCc4ccccc4)cc3)c2c1
13,4%,c1ccc(Cc2nc3ccc(Nc4ncnc5ccccc45)cc3[nH]2)cc1
14,6%,NC(=O)c1sc(-n2cnc3cc(C(F)(F)F)ccc32)cc1OCc1ccccc1Br
15,-1%,COc1cc2ncn(-c3cc(OCc4ccccc4C(F)(F)F)c(C(C)=O)s3)c2cc1OC
16,3%,Oc1cccc(-c2nc(-c3ccccc3)[nH]c2-c2ccncc2)c1
17,-3%,c1cnn2ncc(-c3ccnc(Nc4ccc5c(c4)OCCO5)n3)c2c1
18,0%,Fc1ccc(-c2ncn(C3CCNCC3)c2-c2ccnc(Oc3ccc(Oc4ccccc4)cc3)n2)cc1
19,-9%,COc1cc(Nc2ncc(-c3ccccc3)o2)cc(OC)c1
20,6%,Cc1ccc(O)cc1Nc1ccnc2ccc(S(C)(=O)=O)cc12
21,-2%,COc1ccc(-c2oc3ncnc(N)c3c2-c2ccc(NC(=O)Nc3cc(C(F)(F)F)ccc3F)cc2)cc1
22,-9%,Cc1c2ccc(N(C)c3ccnc(Nc4cccc(S(N)(=O)=O)c4)n3)cc2nn1C
23,0%,COc1cc(N2CCN(C(C)C)CC2)ccc1Nc1nc(Nc2ccc(F)cc2C(=O)NC[C@@H](O)CO)c2cc[nH]c2n1
24,2%,COc1cc2ncn(-c3cc(OCc4ccccc4S(C)(=O)=O)c(C#N)s3)c2cc1OC
